# Source: patent US20220168430A1, “THERAPEUTIC METHODS FOR TREATING HEPATITIS B” (priority 2019, published 2022)
# Columns and labels:
# HBV DNA [1] = assay: HBV DNA in culture supernatants of HBV-infected PHH by qPCR, single agents and double combinations (Examples 1-4); format: cell-based, HBV genotype D; primary human hepatocytes; settings: Hepatitis B virus
# Method: (§1) The day PHH seeding date was defined as day 0.
# (§2) The PHH were infected with 400 HBV GE/cell of HBV genotype D type HBV on day 1.
# (§3) The test articles were further diluted with the culture medium to the final test concentrations.
# (§4) All the test articles were further diluted 100 times with the culture medium. The final concentration of DMSO in the culture medium was […].
# (§5) The compounds were tested at 7 concentrations, 3-fold dilution, in triplicate.
# (§6) Four two-way combinations were performed on a 5×5 matrix, in triplicate plates. Transfection reagent was present in all wells. The culture medium containing the articles were refreshed every 1 or 2 days.
# DNA in the culture supernatants harvested on days 8 was isolated with QIAamp 96 DNA Blood Kit (Qiagen-51162). For each sample, 100 μl of each culture supernatant was used to extract DNA. The DNA was eluted with 180 μl of AE. HBV DNA in the culture supernatants was quantified by quatitative PCR using primers and probes outlined in Table 3. Percent inhibition of HBV DNA was calculated with the formula below:
# % Inh. HBV DNA=[1−value of sample/AVG. value of Medium control]×100.
# (§7) Results of double combination studies were analyzed using MacSynergy II software (Prichard and Shipman, 1992).
# HBsAg [2] = assay: microbe, parasite or virus in culture; format: cell-based, HBV genotype D; primary human hepatocytes; settings: Hepatitis B virus
# Method: as §1, §2, §3, §4, §5, §6
# HBsAg in the culture supernatants harvested on days 8 was measured using the HBsAg/ELISA kit (Autobio) according to the manual. The samples were diluted with PBS to get the signal in the range of the standard curve. Percent inhibition of HBsAg was calculated with the formula below:
# % Inh. HBsAg=[1−HBsAg quantity of sample/[…] of DMSO control]×100
# as §7
# HBV DNA [3] = assay: Serum HBV DNA in pHBV1.3 hydrodynamic injection mouse model of HBV (Example 12); format: in vivo, NOD.CB17-Prkdc scid/J mice; HBV genotype D, serotype ayw; settings: once daily oral from Day 0: RNA destabilizer 10 mg/kg, encapsidation inhibitor 100 mg/kg, nucleos(t)ide analog 0.4 mg/kg, group mean ± SEM, n=7 or 8, from negative control
# Method: (§8) On Day −7, 10 micrograms of the plasmid pHBV1.3 (constructed based on details provided in Guidotti, L., et al., Journal of Virology, 1995, 69(10): 6158-6169) was administered to NOD.CB 17-Prkdc^scid/J mice via hydrodynamic injection (HDI; rapid 1.6 mL injection into the tail vein). […] As readouts of the anti-HBV effect of the treatments, serum HBV DNA and serum HBsAg were assessed. Serum HBV DNA concentration in mice was measured using a quantitative PCR assay following total DNA extraction using previously published primers and probe sequences (Tanaka, Y., et al., Journal of Medical Virology, 2004, 72: 223-229). Serum HBsAg concentration in mice was measured using a commercially available ELISA kit (HBsAg EIA 3.0 480 Test Kit, Bio-Rad).
# (§9) Animals were treated with RNA destabilizer as follows: Starting on Day 0, a 10 mg/kg dosage of RNA destabilizer was administered orally to animals on a once-daily frequency for a total of seven doses across the duration of the study. Animals were treated with encapsidation inhibitor as follows: Starting on Day 0, a 100 mg/kg dosage of encapsidation inhibitor was administered orally to animals on a once-daily frequency for a total of seven doses across the duration of the study. Animals were treated with nucleos(t)ide analog as follows: Starting on Day 0, a 0.4 mg/kg dosage of nucleos(t)ide analog was administered orally to animals on a once-daily frequency for a total of seven doses across the duration of the study. The RNA destabilizer, the encapsidation inhibitor, and nucleos(t)ide analog were each dissolved in the same co-solvent formulation for administration and negative control animals were administered the co-solvent formulation alone. To calculate treatment-specific effects, the treated groups are compared against negative control (vehicle treated) animals.
# (§10) The effect of these treatments was determined by collecting blood on Days −1 (prior to study's treatment phase), 4, and 7 and analyzing it for serum HBV DNA and HBsAg content.
# HBsAg [4] = assay: Serum HBsAg in pHBV1.3 hydrodynamic injection mouse model of HBV (Example 12); format: in vivo, NOD.CB17-Prkdc scid/J mice; HBV genotype D, serotype ayw; settings: once daily oral from Day 0: RNA destabilizer 10 mg/kg, encapsidation inhibitor 100 mg/kg, nucleos(t)ide analog 0.4 mg/kg, group mean ± SEM, n=7 or 8, from negative control
# Method: as §8, §9, §10
# HBsAg [5] = assay: Liver HBsAg by ELISA in AAV-HBV mouse model (Example 18); format: in vivo, C57BL/6 mice; HBV serotype Ayw, genotype D; settings: Study Day 42; siRNA 3 mg/kg s.c. Days 0 and 28, encapsidation inhibitor 100 mg/kg and/or TDF 1 mg/kg oral daily Days 0-41; group mean ± SEM, n=6
# Method: Prior to treatment start, 1×10^11 viral genomes of an adeno-associated virus (AAV) vector carrying a 1.3-fold overlength copy of an HBV genome (serotype Ayw, genotype D) was administered to C57BL/6 mice via intravenous injection. Introduction of this viral vector results in the expression of HBV DNA and HBV surface antigen (HBsAg) amongst other HBV products. Serum HBV DNA levels in mice was measured using a quantitative polymerase chain reaction (QPCR) assay, HBsAg in serum and liver of mice was measured using an enzyme-linked immunosorbent assay (ELISA), and anti-HBsAg antibodies were measured using ELISA.
# Treatment effects on serum HBV DNA were determined by collecting a small amount of blood on Days 0 (pre-treatment) and 14, as well as from terminal blood collections at Day 42. Treatment effects on HBsAg in serum and liver were determined from terminal sample collections at Day 42.
# Any individual animal samples measured to fall below assay lower limit of quantitation (LLOQ) were reported as the LLOQ value.
SMILES,EC50 (HBV DNA [1]) [nM],EC50 (HBsAg [2]) [nM],Serum HBV DNA log reduction (HBV DNA [3]; Day 4) [log],Serum HBV DNA log reduction (HBV DNA [3]; Day 7) [log],Serum HBsAg log reduction (HBsAg [4]; Day 4) [log],Serum HBsAg log reduction (HBsAg [4]; Day 7) [log],Liver HBsAg (HBsAg [5]) [log10 IU/mg liver protein]
"CC(C)OC(=O)[C@H](C)N[P@](=O)(CO[C@H](C)Cn1cnc2c(N)ncnc21)Oc1ccccc1 [TAF, tenofovir alafenamide]",0.083,4.12,–,–,–,–,–
"CC(C)OC(=O)OCOP(=O)(CO[C@H](C)Cn1cnc2c(N)ncnc21)OCOC(=O)OC(C)C.O=C(O)/C=C/C(=O)O [TDF, tenofovir disoproxil fumarate, reference compound]",–,–,1.2 ± 0.2,1.7 ± 0.1,−0.01 ± 0.12,0.10 ± 0.07,1.77 ± 0.03
